Columns and labels:
[1] = tested on: primary rat cortical neurons injured with glutamate; assay: Effect in rat primary cortical neurons after glutamate injury; assay type: cell-based
Description: A., et al., 1999. J Neurosci 19: 2455-2463 and Callizot.
The medium was changed every 2 days. The cortical neurons were intoxicated with glutamate solution.
The following conditions were assessed: • Control (culture medium) • + glutamate (40 μM, 20 min) • + glutamate (40 μM, 20 min)+CR777 (at each concentration)

[2] = tested on: Primary Human Umbilical Vein Endothelial Cells (HUVEC); assay: Cytotoxicity test, cell growth inhibition by MTS assay; assay type: cell-based; conditions: 72 h incubation, 8 concentrations
Description: Human MRC-5 cell line derived from normal lung tissue and human HCT-116 colorectal carcinoma were obtained from the American Type Culture Collection (ATCC, Rockville, Md.). Primary Human Umbilical Vein Endothelial Cells (HUVEC) isolated from the vein of the umbilical cord were obtained from Promocell (Germany). Cell lines were cultured according to the supplier's instructions. Human HCT-116 cells were grown in Gibco McCoy's 5A supplemented with 10% fetal calf serum (FCS) and 1% glutamine. Human MRC-5 cells were grown in DMEM supplemented with 10% fetal calf serum (FCS) and 1% glutamine. HUVECs were grown in Endothelial Cell Growth Medium 2 which is low-serum (2% V/V) media optimized for the cultivation of endothelial cells from large blood vessels.
Cells were counted using a Vi-cell XR (Beckman Coulter) and their viability assessed by 0.25% trypan blue dye exclusion. They were tested for the presence of mycoplasma before experiments with the Mycoplasma PCR Detection Kit (Applied Biological Materials Inc., Canada) in accordance with the manufacturer instructions and only mycoplasma-free cells were used for further investigations.
Cell lines were maintained at 37° C. in a humidified atmosphere containing 5% CO2. Cell growth inhibition was determined by an MTS assay according to the manufacturer's instructions (Promega, Madison, Wis., USA). […] After 24 h of culture, the cells were treated with the compound CR777 of example 1 at 8 different final concentrations. Each concentration was obtained from serial dilutions in culture medium starting from the stock solution. Control cells were treated with the vehicle. Experiments were performed in triplicate.
After 72 h of incubation, 20 μL of CellTiter 96® AQueous One Solution Reagent was added for 2 h before recording absorbance at 490 nm with a spectrophotometric plate reader. The dose-response curves were plotted with Graph Prism software and the IC50 values were calculated using the Graph Prism software from polynomial curves (four or five-parameter logistic equations).

[3] = tested on: primary cocultures of central neurons and oligodendrocytes; assay: In vitro MS (myelination) model; assay type: cell-based, rat
Description: A reproducible in vitro myelination model based on primary cocultures of central neurons and oligodendrocytes culturing in 96-well plate is used and adapted to high throughput screening.
Neurons/oligodendrocytes were cultured as previously described by Charles et al., 2000. PNAS 97 7585-7590.
Briefly, pregnant Wistar female rats of 17 days gestation were killed by cervical dislocation (Janvier Labs, France) and the foetuses removed from the uterus. The forebrains were removed and placed in ice-cold medium of Leibovitz (L15; Pan Biotech, Germany) containing 2% of Penicillin-Streptomycin (Batch 1451013, PanBiotech) and 1% of bovine serum albumin (BSA) (Batch K180713, Pan Biotech). Cortexes were dissociated by trypsinisation for 20 min at 37° C., with Trypsin EDTA 1× (Batch 7310713, PanBiotech). The reaction was stopped by the addition of Dulbecco's modified Eagle's medium (DMEM) (Batch 9710913, PanBiotech) containing DNAase I grade II at 0.1 mg/mL (Batch H131108, PanBiotech) and 10% of foetal calf serum (Batch 41Q7218K, Invitrogen, France). Cells were then mechanically dissociated by 3 passages through a 10 mL pipette. Cells were centrifuged at 180×g for 10 min at 4° C. temperature on a layer of BSA (3.5%) in L15 medium. The supernatant was discarded and cells of the pellet were re-suspended in DMEM containing 10% of FCS. […] The supernatant was discarded and cells of pellet were re-suspended in a culture medium consisting of Neurobasal (Batch 1625353, Invitrogen) supplemented with 2% of B27 (Batch 1618508, Invitrogen), 2 mM of L-glutamine (Batch 6620314, PanBiotech), 2% of PS solution, 1% of foetal calf serum (FCS) and 10 ng/mL of platelet-derived growth factor (PDGF-AA) (Batch H131205, PanBiotech).
The plates were maintained at 37° C. in a humidified incubator, in an atmosphere of air (95%)-CO2 (5%). Half of the medium was changed every 2 days with fresh medium in presence or absence of compound.
Plate 1 for Day 12 (A2B5) and plate 2 for Day 18 (MAG evaluation) • Control (vehicle) • Compound CR777 of example 1 (1 pmol/L) • Compound CR777 of example 1 (10 pmol/L) • Compound CR777 of example 1 (100 pmol/L) • Compound CR777 of example 1 (1 nmol/L) • Compound CR777 of example 1 (10 nmol/L) • Compound CR777 of example 1 (100 nmol/L) • Compound CR777 of example 1 (1 μmol/L) • Compound CR777 of example 1 (10 μmol/L)
The cells were then permeabilized and non-specific sites were blocked with a solution of phosphate buffered saline (Batch 3010914, PanBiotech) containing 0.1% of saponin (Batch BCBJ8417V, Sigma) and 1% FCS for 15 min at room temperature.
On day 12, cells were incubated with Monoclonal Anti-A2B5 conjugated Alexa Fluor® 488 produced in mouse (Batch 2281669, Millipore, France) at dilution of 1/200 in PBS containing 1% FCS, 0.1% saponin, and with anti-MAP-2 antibody produced in chicken (Batch GR180541-3, AbCam; United Kingdom) at dilution of 1/1000 in PBS containing 1% FCS, 0.1% saponin for 2 h at room temperature. […]
The immunolabeled cultures were automatically examined with ImageXpress (Molecular Devices) equipped with a LED at ×20 magnification. […] Number of A2B5 positive cells and number of MAG positive cells were automatically analyzed by using Custom module editor (Molecular Devices). […] All values were expressed as mean+/−SEM (s.e.mean) of the 6 wells. […]

[4] = 18 days of treatment, significant from 1 pmol/L up to 1 μmol/L, not at 10 μM

CC1=C(CO)C(=O)O[C@@H]([C@@H](C)[C@H]2CCC3C4C[C@H](SC[C@H](NC(=O)CC[C@@H](N)C(=O)O)C(=O)NCC(=O)O)[C@]5(O)[C@@H](O)C=CC(=O)[C@]5(C)C4CC[C@@]32C)C1 (stereo partly drawn) [CR777]
neurite network ([1]; CR777 1 pmol/L to 10 μmol/L overall, glutamate 40 μM, 20 min): moderate neuroprotective effect
neuron survival ([1]; CR777 100 pM, added 1 h before glutamate (40 μM, 20 min) and let for 48 h): significantly protected neurons from death
neuron survival ([1]; CR777 from 1 nM up to 1 μM, glutamate 40 μM, 20 min): full protection
concentration at which the maximal effect on neurite network was observed ([1]; glutamate 40 μM, 20 min): 1 µM
concentration at which the maximal effect on neuron survival was reached ([1]; glutamate 40 μM, 20 min, dose dependent): 10 nM
neurite network ([1]; only the doses of 10, 100 pM and 1 μM, glutamate 40 μM, 20 min): significantly protected the neurite network
toxicity (cell growth inhibition, MTS) [2]: does not show any toxicity
OPC (precursor cells of oligodendrocytes) number, A2B5 positive cells ([3]; 12 days treatment, 1 pmol/L to 10 μmol/L): did not show any significant increase
total number of OPCs ([3]; 12 days treatment, at the highest doses): decrease of the total number of OPCs
maximal effect on MAG, increase vs control ([3]; 18 days of treatment, all doses): ~60%
myelination of neurons by OL (area of MAG expression) [3, 4]: significantly improved
number of MAG positive cells (OL) [3, 4]: able to increase the number of MAG positive cells

Source: patent publication US11634452B2, “Compounds for treating neurodegenerative disorders” (ETHNODYNE, priority 2017, dated 2023)
